This series in a line: in vitro. Particulars: human, hela cells, % viability.

For orientation: viability means a read-out of living cells in per cent, often relative to untreated cells.

Structures are written as SMILES.

On to `COc1ccc(C2c3cc(OC)c(OC)cc3CC(=O)N2c2ccc(C(=O)O)cc2)cc1OC` (centres unmarked) [CBK296082], for which the viability at 28.5 h, 10 µM was determined as 96.4%.

Regarding `C=Cn1ncc(CN(C)Cc2nc3ccccc3[nH]2)c1C` [CBK283170], the viability at 28.5 h, 10 µM was determined as 91.6%. With `CC1Oc2ccccc2OC1C(=O)Nc1ccc([N+](=O)[O-])cc1Cl` (centres unmarked) [CBK269412] the figure was 85.8%; with `O=C(c1ccc(O)cc1)c1ccc(C(=O)O)c(C(=O)O)c1` [CBK261075], 105%; with `CC(C)(C)c1ccc(Oc2c(C(F)(F)F)oc3cc(OCC(=O)O)ccc3c2=O)cc1` [CBK217882], 94.1%.

As for `O=C(Cn1c(C2CCCNC2)cc2cccnc21)NC1CCCC1` (centres unmarked) [CBK285059], the viability at 28.5 h, 10 µM was 97.5%. As to `Cc1ccccc1-n1ncc2c1NC(=O)N1CCCN=C21` [CBK284409], the viability at 28.5 h, 10 µM was 78.7%.

For the compound `O=C(Cn1cnc(NCc2cscn2)n1)N1CCCCCC1` [CBK304061], the viability at 28.5 h, 10 µM amounted to 98%. Consider `O=C(O)c1cccnc1SC1CC(=O)N(c2ccc(F)cc2)C1=O` (centres unmarked) [CBK265582], for which the viability at 28.5 h, 10 µM came to 110%. Turning to `COc1cc(C)nc(OCCNS(=O)(=O)c2cc(C)ccc2C)n1` [CBK058870], the viability at 28.5 h, 10 µM stood at 91.9%. Turning to `O=C(CSc1nnc(Cc2cccc3ccccc23)n1-c1ccccc1)NC1CC1` [CBK267382], the viability at 28.5 h, 10 µM came to 86.3%. Take `O=C(O)c1ccc(CNC(=S)Nc2ccc([N+](=O)[O-])cc2)cc1` [CBK267037]: the viability at 28.5 h, 10 µM was 92.9%. With `CC(C)(CC(=O)O)CC(=O)N1CCCC1c1nc(-c2ccccc2)c2ccccn12` (centres unmarked) [CBK046399] the figure was 98.8%; with `Cc1ccc2c(c1)C(C)(c1ccccc1)CC(C)(C)N2C(=O)CSc1nncn1C` (centres unmarked) [CBK022397], 98.8%; with `CC(C(=O)Nc1ccc(S(N)(=O)=O)cc1)N(C)Cc1cccs1` (centres unmarked) [CBK305945], 88.8%. For the compound `CCN(CC(=O)NCc1ccc(Cl)cc1)S(=O)(=O)N1CCCCCC1` [CBK305733], the viability at 28.5 h, 10 µM amounted to 110%.

As for `O=C1OC(c2ccco2)=N/C1=C/Nc1ccc(C(=O)O)cc1` [CBK265195], the viability at 28.5 h, 10 µM came out at 104%. In the case of `O=C(NC1CCCCC1)NS(=O)(=O)c1ccc(CCNC(=O)c2cnc3ccccc3n2)cc1` [CBK013051], the viability at 28.5 h, 10 µM was 87.1%. Regarding `Cc1cc2cc(C(=O)NCC3(N(C)C)CCN(C)CC3)ccc2o1` [CBK282623], the viability at 28.5 h, 10 µM is 90.2%.

In the case of `CC1(C)C[C@H](NC2CCOCC2)[C@@]2(CCC(=O)N3CCOCC3)CC[C@](C)(O)C[C@@H]12` [CBK289041], the viability at 28.5 h, 10 µM worked out at 91.6%. Turning to `CCc1cn(C[C@H](NC(=O)C2CCC2)C(=O)O)c(=O)[nH]c1=O` [CBK289663], the viability at 28.5 h, 10 µM was 97.1%.

For `CC1CC1C(=O)N1CCCC(c2nn(C)c3ncccc23)C1` (centres unmarked) [CBK282167], the viability at 28.5 h, 10 µM was determined as 85.7%. For `CCn1cc(S(=O)(=O)Nc2ccc3c(ccn3C)c2)c(C)n1` [CBK282818], the viability at 28.5 h, 10 µM is 84.2%.

On to `COc1ccc(CC(=O)N2CCC(c3cccc(Cc4ccccc4C)n3)CC2)cc1` [CBK286232], for which the viability at 28.5 h, 10 µM came to 93.5%.

Regarding `C[C@@H](Cn1nc2c(cc1=O)CCCC2)NC(=O)Cc1cccc(F)c1` [CBK284527], the viability at 28.5 h, 10 µM stood at 95.9%. With `Cc1c(C(=O)O)sc(S(=O)(=O)N2CCN(C(=O)c3ccc(F)cc3)CC2)c1C(=O)O` [CBK297118], the viability at 28.5 h, 10 µM stood at 107%. The figure for `CN(C)CCCNc1ccc(-c2nnc(O)c3ccccc23)cc1[N+](=O)[O-]` [CBK266200] is 100%; for `Sc1nnc(COc2ccccc2)n1/N=C/c1ccccn1` [CBK265279] it is 102%. The figure for `Cc1nc2ccc(C(=O)NCCCN3Cc4ccccc4C3)cc2[nH]1` [CBK283301] is 90.3%; for `c1cc(CCCOc2cncc(N3CCCC3)n2)ccn1` [CBK115760] it is 85.3%; for `CCNC(=O)Nc1nn(Cc2ccc(OC)cc2)c2ccccc12` [CBK105837] it is 94.6%. Consider `O=c1[nH]c(=O)c2cc(S(=O)(=O)Nc3ccccc3Cc3ccccc3)ccc2[nH]1` [CBK286377], for which the viability at 28.5 h, 10 µM turned out to be 94.3%. The figure for `COc1ncc(-c2cncc(Nc3cccc(C#N)c3)n2)c(OC)n1` [CBK066022] is 89.7%; for `COc1cc(CO)c(-c2c[nH][nH]c2=O)cc1OC` [CBK009476] it is 85.5%; for `O=C(O)c1nn(-c2ccccc2)c2cc([N+](=O)[O-])ccc12` [CBK006532] it is 95%. As for `CCC(C)(CC(=O)O)CC(=O)N1CCC2(C1)NCCc1c2[nH]c2ccccc12` (centres unmarked) [CBK047003], the viability at 28.5 h, 10 µM is 88.5%. Consider `CC(=O)N1CCc2ccc(S(=O)(=O)n3ccc4c(N5CCNCC5)cccc43)cc2C1` [CBK001632C], for which the viability at 28.5 h, 10 µM was found to be 101%. As to `CC(=O)N1CC[C@H]2NC(=O)CNC(=O)C3(CCCC[C@H]2C1)CCN(C(=O)c1n[nH]c2c1CCC2)CC3` [CBK292012], the viability at 28.5 h, 10 µM is 102%. For `O=C(NCCc1c[nH]cn1)N1CCN(Cc2ccccc2)CC1` [CBK155629], the viability at 28.5 h, 10 µM is 96.4%. With `Cc1cc2c(cc3c(=O)n(CC(=O)NC(C)(C)C)nc(C)n32)s1` [CBK284070] the figure was 84.1%; with `CC(C)N1CCc2c(sc3nc(SCc4ccc(Cl)cc4)n(Cc4ccccc4)c(=O)c23)C1` [CBK263745], 84.4%. For `c1ccc(CCN2CCC(n3cnc4cccnc43)CC2)cc1` [CBK283581], the viability at 28.5 h, 10 µM stood at 88.5%.

In the case of `CCOC(=O)C1(Cc2cc(-c3cccc(F)c3)no2)CCCNC1` (centres unmarked) [CBK284578], the viability at 28.5 h, 10 µM was determined as 87.3%. With `CC(Oc1ccccc1)C(=O)NCCN1CCOCC1` (centres unmarked) [CBK263812] the figure was 94.1%; with `O=[N+]([O-])c1ccc(/C=N/c2ccc(Cc3ccc(/N=C/c4ccc([N+](=O)[O-])s4)cc3)cc2)s1` [CBK261228], 98.3%.

As for `O=S(=O)(N1CCNCC1)N1CCOCC1` [CBK267467], the viability at 28.5 h, 10 µM worked out at 88.5%. As to `CCn1cc(-c2cncn2CCn2nc(C)c(Cl)c2C)cn1` [CBK281708], the viability at 28.5 h, 10 µM came to 87.9%. With `Cc1cc(C)n(CC(=O)NC2CCCOc3c(F)cccc32)n1` (centres unmarked) [CBK305553] the figure was 106%; with `COc1cc(/C=N\NC(=O)CN2CCN(C)CC2)cc2c1OCO2` [CBK261503], 109%; with `O=C(c1ccccc1)c1ccc(CNC(=O)C2(c3ccccc3)CCCC2)cc1` [CBK161526], 87.6%. The figure for `Cc1cccc(OCCCn2cncc2-c2cn(C)nc2C)c1` [CBK281766] is 90%; for `CC(=O)Nc1cccc(NC(=O)N2CCN(Cc3ccccc3)CC2)c1` [CBK155643] it is 98%.

As for `CCCn1nc(COc2cccc(F)c2)nc1C1CCN(C(C)=O)CC1` [CBK306637], the viability at 28.5 h, 10 µM came to 97.7%. Consider `COc1ccc([C@]23CC[C@H](NC(=O)Nc4ccc(F)cc4F)C[C@H]2N(C)CC3)cc1OC` [CBK066917T], for which the viability at 28.5 h, 10 µM was 90.6%. The figure for `COC(=O)c1ccc2c(c1)C(=O)N(c1ccc(C(=O)OCC(C)C)cc1)C2=O` [CBK156802] is 92.1%.

For the compound `OCC1CCN(Cc2ccc(OC3CCCC3)cc2)C1` (centres unmarked) [CBK282929], the viability at 28.5 h, 10 µM worked out at 99.5%.

These data come from article PMC12040169 (PLOS Biology, 2025).
